Reference: patent publication US20260234129A1, “NOVEL IMIDAZOLE DERIVATIVE AND USE THEREOF” (PELEMED CO., LTD., priority 2023, published 2026)

Columns and labels:
FLT3 = biological target: T1, FLT3 (Homo sapiens, UniProt P36888); test: ADP-Glo kinase assay FLT3 WT; type: biochemical; details: recombinant FLT3, 120 minutes at room temperature, read-out: Enzyme (IC50) FLT3 WT
T1 construct: Recombinant proteins containing FLT3 and FLT3(D835Y) domains were purchased from Promega; purchased Promega V4064
T1 sequence (P36888 610-943 limits assumed): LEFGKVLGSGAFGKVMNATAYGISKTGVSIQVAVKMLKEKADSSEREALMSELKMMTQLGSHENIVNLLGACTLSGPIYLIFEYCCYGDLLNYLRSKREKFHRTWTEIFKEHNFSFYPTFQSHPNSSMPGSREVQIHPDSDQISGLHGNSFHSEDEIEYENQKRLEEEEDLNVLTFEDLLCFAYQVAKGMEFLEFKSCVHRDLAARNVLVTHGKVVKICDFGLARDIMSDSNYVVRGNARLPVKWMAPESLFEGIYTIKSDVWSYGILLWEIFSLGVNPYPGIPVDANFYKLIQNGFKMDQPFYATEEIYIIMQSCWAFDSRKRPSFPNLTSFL
Protocol: FLT3 activity inhibition was measured using the ADP-Glo kinase assay method (Promega, cat #V9101). The ADP-Glo kinase assay method is a luminescent ADP detection assay method that provides a homogeneous, high-throughput screening method for measuring kinase activity by quantifying the amount of ADP produced during the kinase reaction.
The assay was performed in two steps. First, after the kinase reaction, an equal volume of ADP-Glo™ reagent was added to terminate the kinase reaction and deplete any remaining ATP. Second, a kinase detection reagent was added to convert ADP to ATP, and simultaneously the newly synthesized ATP was measured via the luciferase/luciferin reaction. The light produced was measured using a luminometer.
Recombinant proteins containing FLT3 and FLT3(D835Y) domains were purchased from Promega (cat #V4064, cat #V4514), respectively. According to the manufacturer's instructions, the optimal enzyme, ATP, and substrate concentrations were optimized using the ADP-Glo™ kinase assay method (Promega, USA). […] Thereafter, ADP-Glo™ reagent (5 μl) was added and reacted for an additional 40 minutes at room temperature. Finally, the detection reagent (kinase detection reagent, 10 μl) was added, followed by reaction at room temperature for 30 minutes, and the phosphorylation of the substrate peptide was measured by detecting the luciferase signal (integration time 0.5~1 sec) using a SpectraMax ID5 reader (Molecular Devices LLC., San Jose, CA, USA).

[1] = system: MV4-11 cells (FLT3-ITD-expressing AML cell line); test: Cell proliferation inhibition, Alamar Blue; type: cell-based, human; details: Homo sapiens, MV4-11, 72 hours of compound treatment, read-out: Cellular (GI50) MV4-11
Protocol: (§1) The cell proliferation inhibition experiment on acute myeloid leukemia (AML) cell lines was performed using FL3-ITD-expressing AML cell line MV4-11, BaF3-ITD-FLT3 F691L cell line, and BaF3-ITD-FLT3 D835Y cell line to test FLT3 inhibitory activity. All cell lines were human-derived cell lines, and the sources and culture conditions for each cell line are as follows.
(§2) Cell viability was assessed by a resazurin redox-based assay using the Alamar Blue Assay kit (Invitrogen, USA). Specifically, MV4-11, BaF3-ITD-FLT3-F691L, and BaF3-ITD-FLT3-D835Y cells were plated in 384-well plates at 8,000 cells in 45 μL of medium. As a negative control, dimethyl sulfoxide (DMSO) was added together with the compound. After three days (72 hours) of compound treatment, 5 μL of the Alamar Blue kit reagent was added to each well of the 384-well plates, followed by incubation at 37° C. for 2 hours in a humidified CO2 incubator. After incubation, fluorescence intensity (Flu) was measured at 544 nm and 590 nm using a SpectraMax iD3 Multi Mode Microplate Reader (Molecular Devices, ID3-STD).

[2] = system: BaF3-ITD-FLT3 F691L cell line; test: Cell proliferation inhibition, Alamar Blue; type: cell-based; details: 72 hours of compound treatment, read-out: Cellular (GI50) BaF3-ITD-FLT3 F691L
Protocol: as §1, §2

[3] = system: BaF3-ITD-FLT3 D835Y cell line; test: Cell proliferation inhibition, Alamar Blue; type: cell-based; details: 72 hours of compound treatment, read-out: Cellular (GI50) BaF3-ITD-FLT3 D835Y
Protocol: as §1, §2

Row | SMILES | GI50 [1] | also measured
1 | COc1ccc2nc(-c3n[nH]c4ccc(C(=O)NCCCN(C)C)cc34)[nH]c2c1 [Example 11, N-(3-(dimethylamino)propyl)-3-(6-methoxy-1H-benzo[d]imidazol-2-yl)-1H-indazole-5-carboxamide] | < 10 nM | IC50 (FLT3): < 10 nM
2 | Cc1ccc2nc(-c3n[nH]c4ccc(C(=O)NCCCN(C)C)cc34)[nH]c2c1 [Example 12, N-(3-(dimethylamino)propyl)-3-(6-methyl-1H-benzo[d]imidazol-2-yl)-1H-indazole-5-carboxamide] | < 10 nM | IC50 (FLT3): < 10 nM
3 | O=C(NCCCC(F)(F)F)c1ccc2[nH]nc(-c3nc4ccc(N5CCCC5)cc4[nH]3)c2c1 [Example 13, 3-(6-(pyrrolidin-1-yl)-1H-benzo[d]imidazol-2-yl)-N-(4,4,4-trifluorobutyl)-1H-indazole-5-carboxamide] | 10 to 100 nM | GI50 [2]: 10 to 100 nM; GI50 [3]: 10 to 100 nM
4 | O=C(NCC1CC(F)(F)C1)c1ccc2[nH]nc(-c3nc4ccc(N5CCCC5)cc4[nH]3)c2c1 [Example 14, N-((3,3-difluorocyclobutyl)methyl)-3-(6-(pyrrolidin-1-yl)-1H-benzo[d]imidazol-2-yl)-1H-indazole-5-carboxamide] | 10 to 100 nM | GI50 [2]: 100 to 1000 nM; GI50 [3]: 10 to 100 nM
5 | NCCCNC(=O)c1ccc2[nH]nc(-c3nc4ccc(CN5CCOCC5)cc4[nH]3)c2c1 [Example 26, N-(3-aminopropyl)-3-(6-(morpholinomethyl)-1H-benzo[d]imidazol-2-yl)-1H-indazole-5-carboxamide] | 100 to 1000 nM | IC50 (FLT3): < 10 nM
6 | O=C(NCC1CNC1)c1ccc2[nH]nc(-c3nc4ccc(-c5ccoc5)cc4[nH]3)c2c1 [Example 75, N-(azetidin-3-ylmethyl)-3-(6-(furan-3-yl)-1H-benzo[d]imidazol-2-yl)-1H-indazole-5-carboxamide] | 10 to 100 nM | GI50 [2]: 10 to 100 nM; GI50 [3]: < 10 nM
7 | NCCCNC(=O)c1ccc2[nH]nc(-c3ncc(-c4ccc(N5CCOCC5)cc4)[nH]3)c2c1 [Example 90, N-(3-aminopropyl)-3-(5-(4-morpholinophenyl)-1H-imidazol-2-yl)-1H-indazole-5-carboxamide] | 100 to 1000 nM | 
8 | NCCCNC(=O)c1ccc2[nH]nc(-c3ncc(-c4cccc(N5CCOCC5)c4)[nH]3)c2c1 [Example 91, N-(3-aminopropyl)-3-(5-(3-morpholinophenyl)-1H-imidazol-2-yl)-1H-indazole-5-carboxamide] | 10 to 100 nM | 
9 | NCCCNC(=O)c1ccc2[nH]nc(-c3ncc(-c4cccc(O)c4)[nH]3)c2c1 [Example 92, N-(3-aminopropyl)-3-(5-(3-hydroxyphenyl)-1H-imidazol-2-yl)-1H-indazole-5-carboxamide] | 100 to 1000 nM | 
10 | NCCCNC(=O)c1ccc2[nH]nc(-c3ncc(-c4cccc(N)c4)[nH]3)c2c1 [Example 93, 3-(5-(3-aminophenyl)-1H-imidazol-2-yl)-N-(3-aminopropyl)-1H-indazole-5-carboxamide] | 100 to 1000 nM | 
11 | CS(=O)(=O)NCCNC(=O)c1ccc2[nH]nc(-c3nc(-c4ccccc4)c[nH]3)c2c1 [Example 94, N-(2-(methylsulfonamido)ethyl)-3-(4-phenyl-1H-imidazol-2-yl)-1H-indazole-5-carboxamide] | > 1000 nM | 
12 | CN(C)CCNC(=O)c1ccc2[nH]nc(-c3nc(-c4ccccc4)c[nH]3)c2c1 [Example 95, N-(2-(dimethylamino)ethyl)-3-(4-phenyl-1H-imidazol-2-yl)-1H-indazole-5-carboxamide] | 100 to 1000 nM | 
13 | O=C(c1ccc2[nH]nc(-c3nc(-c4ccccc4)c[nH]3)c2c1)N1CCN(c2ccc(F)cc2)CC1 [Example 97, (4-(4-fluorophenyl)piperazin-1-yl)(3-(4-phenyl-1H-imidazol-2-yl)-1H-indazol-5-yl)methanone] | > 1000 nM | 
14 | CN1CCN(C(=O)c2ccc3[nH]nc(-c4nc(-c5ccccc5)c[nH]4)c3c2)CC1 [Example 99, (4-methylpiperazin-1-yl)(3-(4-phenyl-1H-imidazol-2-yl)-1H-indazol-5-yl)methanone] | > 1000 nM | 
15 | NC1CCN(CCNC(=O)c2ccc3[nH]nc(-c4nc(-c5ccccc5)c[nH]4)c3c2)CC1 [Example 103, N-(2-(4-aminopiperidin-1-yl)ethyl)-3-(4-phenyl-1H-imidazol-2-yl)-1H-indazole-5-carboxamide] | > 1000 nM | 
16 | CC(C)n1c(-c2n[nH]c3ccc(C(=O)NCCCN)cc23)nc2ccc(F)cc21 [Example 105, N-(3-aminopropyl)-3-(6-fluoro-1-isopropyl-1H-benzo[d]imidazol-2-yl)-1H-indazole-5-carboxamide] | > 1000 nM | 
17 | COCCn1c(-c2n[nH]c3ccc(C(=O)NCCCN)cc23)nc2ccc(F)cc21 [Example 106, N-(3-aminopropyl)-3-(6-fluoro-1-(2-methoxyethyl)-1H-benzo[d]imidazol-2-yl)-1H-indazole-5-carboxamide] | > 1000 nM | 
18 | CN(C)CCn1c(-c2n[nH]c3ccc(C(=O)NCCCN)cc23)nc2ccc(F)cc21 [Example 107, N-(3-aminopropyl)-3-(1-(2-(dimethylamino)ethyl)-6-fluoro-1H-benzo[d]imidazol-2-yl)-1H-indazole-5-carboxamide] | > 1000 nM | 
19 | CN1CCN(CCn2c(-c3n[nH]c4ccc(C(=O)NCCCN)cc34)nc3ccc(F)cc32)CC1 [Example 108, N-(3-aminopropyl)-3-(6-fluoro-1-(2-(4-methylpiperazin-1-yl)ethyl)-1H-benzo[d]imidazol-2-yl)-1H-indazole-5-carboxamide] | > 1000 nM | 
20 | NCCCNC(=O)c1ccc2[nH]nc(-c3nc4ccc(F)cc4n3CCO)c2c1 [Example 109, N-(3-aminopropyl)-3-(6-fluoro-1-(2-hydroxyethyl)-1H-benzo[d]imidazol-2-yl)-1H-indazole-5-carboxamide] | > 1000 nM | 
21 | NCCCNC(=O)c1ccc2c(-c3nc4ccc(F)cc4[nH]3)n[nH]c2c1 [Example 110, N-(3-aminopropyl)-3-(6-fluoro-1H-benzo[d]imidazol-2-yl)-1H-indazole-6-carboxamide] | > 1000 nM | 
22 | O=C(NCCCO)c1ccc2[nH]nc(-c3nc4ccc(F)cc4[nH]3)c2c1 [Example 111, 3-(6-fluoro-1H-benzo[d]imidazol-2-yl)-N-(3-hydroxypropyl)-1H-indazole-5-carboxamide] | 100 to 1000 nM | 
23 | NCCN1CCC(NC(=O)c2ccc3[nH]nc(-c4nc5ccccc5[nH]4)c3c2)CC1 [Example 112, N-(1-(2-aminoethyl)piperidin-4-yl)-3-(1H-benzo[d]imidazol-2-yl)-1H-indazole-5-carboxamide] | 10 to 100 nM | 
24 | NCCCNC(=O)c1ccc2[nH]nc(-c3nc(C(N)=O)c(-c4ccccc4)[nH]3)c2c1 [Example 113, N-(3-aminopropyl)-3-(4-carbamoyl-5-phenyl-1H-imidazol-2-yl)-1H-indazole-5-carboxamide] | 100 to 1000 nM | 
25 | COCc1cnc(-c2n[nH]c3ccc(C(=O)NCCCN)cc23)[nH]1 [Example 114, N-(3-aminopropyl)-3-(5-(methoxymethyl)-1H-imidazol-2-yl)-1H-indazole-5-carboxamide] | > 1000 nM | 
26 | NCCCNC(=O)c1ccc2[nH]nc(-c3ncc(COc4ccccc4)[nH]3)c2c1 [Example 115, N-(3-aminopropyl)-3-(5-(phenoxymethyl)-1H-imidazol-2-yl)-1H-indazole-5-carboxamide] | > 1000 nM | 
